Experimental data: ChEMBL document CHEMBL4052737, “3-Oxo-γ-costic acid fungal-transformation generates eudesmane sesquiterpenes with in vitro tumor-inhibitory activity” (Bioorg Med Chem Lett, 2017)
Activity calls are given as the source filed them. No cut-off for these calls is given here.

Columns and labels:
Type in all cases: functional, cell-based
A549 = test: Antiproliferative activity against human A549 cells after 48 hrs by MTT assay; conditions: for IC50: A549, 48 h
Caco-2 [1] = test: Antiproliferative activity against human Caco2 cells after 48 hrs by MTT assay; conditions: for IC50: Caco-2, 48 h
Caco-2 [2] = test: Induction of morphological changes in human Caco2 cells assessed as monolayer disruption at 50 uM by bright field phase contrast microscopy
Caco-2 [3] = test: Induction of morphological changes in human Caco2 cells assessed as cell shrinkage at 50 uM by bright field phase contrast microscopy

C=C(C(=O)O)[C@@H]1CC[C@]2(C)C(=C(C)C(=O)C[C@H]2O)C1
Activity (A549): Dose-dependent effect | IC50 (A549): > 100 µM | Activity (Caco-2 [1]): Dose-dependent effect | IC50 (Caco-2 [1]): 75 µM

C=C(C(=O)O)[C@@H]1CC[C@@]2(C)C[C@H](O)C(=O)C(C)=C2C1
Activity (A549): Dose-dependent effect | IC50 (A549): > 100 µM | Activity (Caco-2 [1]): Dose-dependent effect | IC50 (Caco-2 [1]): 60 µM

C=C(C(=O)O)[C@@H]1CC[C@@]2(C)CCC(=O)C(C)=C2C1
Activity (A549): Dose-dependent effect | IC50 (A549): > 100 µM | Activity (Caco-2 [2]): Active | Activity (Caco-2 [3]): Active | Activity (Caco-2 [1]): Dose-dependent effect | IC50 (Caco-2 [1]): 39 µM

C=C(C(=O)O)[C@@H]1CC[C@@]2(C)C=CC(=O)C(C)=C2C1
Activity (A549): Dose-dependent effect | IC50 (A549): > 100 µM | Activity (Caco-2 [1]): Dose-dependent effect | IC50 (Caco-2 [1]): 66 µM

C=C(C(=O)O)[C@@H]1CC[C@]2(C)C(=C(C)C(=O)[C@@H](O)[C@H]2O)C1
Activity (A549): Dose-dependent effect | IC50 (A549): 74 µM | Activity (Caco-2 [1]): Dose-dependent effect | IC50 (Caco-2 [1]): 66 µM

C=C(C(=O)O)[C@@H]1CC[C@@]2(C)C=C(O)C(=O)C(C)=C2C1
Activity (A549): Dose-dependent effect | IC50 (A549): > 100 µM | Activity (Caco-2 [1]): Dose-dependent effect | IC50 (Caco-2 [1]): 46 µM
